According to the NIST ThermoML archive (doi:10.1021/je901067c):
Numbers after ± are expanded uncertainties.

Columns and labels:
[1] = 101 kPa, Liquid; for viscosity: Capillary tube (Ostwald / Ubbelohde) method
[2] = refractive index (Na D-line) (dimensionless); conditions: 101.33 kPa, Liquid, Standard Abbe refractometry
[3] = refractive index (Na D-line) (dimensionless); xn = mol fraction of the nth substance listed; conditions: 101 kPa, Liquid, Standard Abbe refractometry
[4] = xn = mol fraction of the nth substance listed; conditions: 101 kPa, Liquid; for viscosity: Capillary tube (Ostwald / Ubbelohde) method

Structure (SMILES)	mass density ([1]; 298.15 K) [kg/m3]	viscosity ([1]; 298.15 K) [mPa·s]	mass density ([1]; 308.15 K) [kg/m3]	viscosity ([1]; 308.15 K) [mPa·s]	mass density ([1]; 318.15 K) [kg/m3]	viscosity ([1]; 318.15 K) [mPa·s]	refractive index ([2]; 298.15 K)	refractive index ([2]; 308.15 K)	refractive index ([2]; 318.15 K)	other results
CCC(O)CC [3-pentanol]	815.79 ± 0.54	4.625 ± 0.034	806.91 ± 0.56	2.864 ± 0.022	797.66 ± 0.57	1.902 ± 0.015	1.4047 ± 0.0009	1.4029 ± 0.0009	1.3981 ± 0.0009	
CCC(C)=O [butanone]	799.76 ± 0.56	0.391 ± 0.005	789.21 ± 0.58	0.361 ± 0.005	778.52 ± 0.59	0.334 ± 0.005	1.375 ± 0.0009	1.37 ± 0.0009	1.3657 ± 0.0009	
CCC(C)=O [butanone] + CCC(O)CC										refractive index ([3]; 298.15 K, x1 = 1): 1.375 ± 0.0009; refractive index ([3]; 308.15 K, x1 = 1): 1.37 ± 0.0009; refractive index ([3]; 318.15 K, x1 = 1): 1.3657 ± 0.0009; viscosity ([4]; 298.15 K, x1 = 1): 0.391 ± 0.005 mPa·s; mass density ([4]; 298.15 K, x1 = 1): 799.76 ± 0.56 kg/m3; viscosity ([4]; 308.15 K, x1 = 1): 0.361 ± 0.005 mPa·s; mass density ([4]; 308.15 K, x1 = 1): 789.21 ± 0.58 kg/m3; viscosity ([4]; 318.15 K, x1 = 1): 0.334 ± 0.0049 mPa·s; mass density ([4]; 318.15 K, x1 = 1): 778.52 ± 0.59 kg/m3
CCC(C)=O [butanone] + CCCC(C)O										refractive index ([3]; 298.15 K, x1 = 1): 1.375 ± 0.0009; refractive index ([3]; 308.15 K, x1 = 1): 1.37 ± 0.0009; refractive index ([3]; 318.15 K, x1 = 1): 1.3657 ± 0.0009; viscosity ([4]; 298.15 K, x1 = 1): 0.391 ± 0.005 mPa·s; mass density ([4]; 298.15 K, x1 = 1): 799.76 ± 0.56 kg/m3; viscosity ([4]; 308.15 K, x1 = 1): 0.361 ± 0.005 mPa·s; mass density ([4]; 308.15 K, x1 = 1): 789.21 ± 0.58 kg/m3; viscosity ([4]; 318.15 K, x1 = 1): 0.334 ± 0.0049 mPa·s; mass density ([4]; 318.15 K, x1 = 1): 778.52 ± 0.59 kg/m3
CCCCCO [pentan-1-ol]	810.85 ± 0.55	3.54 ± 0.026	803.45 ± 0.56	2.658 ± 0.02	795.9 ± 0.57	2.288 ± 0.017	1.4068 ± 0.0009	1.4031 ± 0.0009	1.3996 ± 0.0009	
CCCCCO [pentan-1-ol] + CCC(C)=O										refractive index ([3]; 298.15 K, x2 = 0): 1.4068 ± 0.0009; refractive index ([3]; 308.15 K, x2 = 0): 1.4031 ± 0.0009; refractive index ([3]; 318.15 K, x2 = 0): 1.3996 ± 0.0009; viscosity ([4]; 298.15 K, x2 = 0): 3.54 ± 0.026 mPa·s; mass density ([4]; 298.15 K, x2 = 0): 810.85 ± 0.55 kg/m3; viscosity ([4]; 308.15 K, x2 = 0): 2.658 ± 0.02 mPa·s; mass density ([4]; 308.15 K, x2 = 0): 803.45 ± 0.56 kg/m3; viscosity ([4]; 318.15 K, x2 = 0): 2.288 ± 0.017 mPa·s; mass density ([4]; 318.15 K, x2 = 0): 795.9 ± 0.57 kg/m3
CCCC(C)O (stereo not drawn) [pentan-2-ol]	805.3 ± 0.56	3.478 ± 0.026	797 ± 0.57	2.361 ± 0.018	788.37 ± 0.58	1.772 ± 0.014	1.4032 ± 0.0009	1.399 ± 0.0009	1.395 ± 0.0009	
